Test results taken from patent US7501397B2, “Helical peptidomimetics with enhanced activity” (The Brigham and Women's Hospital, Inc., priority 2004, dated 2009).
Non-standard residues stand in square brackets, D forms with d. Residues, ends and D or L forms follow the SMILES beside them. *: point of attachment. Boc = CC(C)(C)OC(=O)*; Aib = CC(C)(N)C(=O)O; Bn = c1ccc(C*)cc1

Molecular target: γ-secretase (Homo sapiens, UniProt P49768)
Assay: cell-free γ-secretase assay using detergent-solubilized membranes from HeLa cells and a recombinant APP-based substrate
Format: biochemical
Parameters: detergent-solubilized membranes from HeLa cells; endogenous in cells; host or cells: HeLa cells (detergent-solubilized membranes)
Settings: for IC50: 50% inhibition of Aβ40 production, at least three independent experiments, read-out: Cell-free Assay IC50; for increase in potency over the reference L-decapeptide having SEQ ID NO:10: L-series, cell-free assay
Procedure: Compounds were tested in a γ-secretase assay using detergent-solubilized membranes from HeLa cells and a recombinant APP-based substrate (Table 2, 18). […] Moreover, the γ-secretase inhibition appears to show dependence on length.

Compound	IC50	increase in potency over the reference L-decapeptide having SEQ ID NO:10
CC[C@@H](C)[C@@H](NC(=O)[C@H](NC(=O)[C@H](NC(=O)OC(C)(C)C)C(C)C)C(C)C)C(=O)NC(C)(C)C(=O)N[C@@H](C(=O)N[C@@H](C(=O)NC(C)(C)C(=O)N[C@@H](C(=O)N[C@@H](C(=O)NC(C)(C)C(=O)OC)[C@H](C)CC)C(C)C)C(C)C)[C@H](C)OCc1ccccc1 [SEQ ID NO:15 D-peptide, Boc-Val-Val-Ile-Aib-Thr(OBz)-Val-Aib-Val-Ile-Aib-OMe] (Boc-[dV][dV][dI][Aib][dT](Bn)[dV][Aib][dV][dI][Aib]-OMe)	25 ± 3 nM	
CC[C@H](C)[C@H](NC(=O)[C@@H](NC(=O)[C@@H](NC(=O)OC(C)(C)C)C(C)C)C(C)C)C(=O)NC(C)(C)C(=O)N[C@H](C(=O)N[C@H](C(=O)NC(C)(C)C(=O)N[C@H](C(=O)N[C@H](C(=O)NC(C)(C)C(=O)OC)[C@@H](C)CC)C(C)C)C(C)C)[C@@H](C)OCc1ccccc1 [SEQ ID NO:15 L-peptide, Boc-Val-Val-Ile-Aib-Thr(OBz)-Val-Aib-Val-Ile-Aib-OMe] (Boc-VVI[Aib]T(Bn)V[Aib]VI[Aib]-OMe)	10000 nM	
CC[C@@H](C)[C@@H](NC(=O)[C@H](NC(=O)[C@H](NC(=O)C(C)(C)NC(=O)OC(C)(C)C)C(C)C)C(C)C)C(=O)NC(C)(C)C(=O)N[C@@H](C(=O)N[C@@H](C(=O)NC(C)(C)C(=O)N[C@@H](C(=O)N[C@@H](C(=O)NC(C)(C)C(=O)OC)[C@H](C)CC)C(C)C)C(C)C)[C@H](C)OCc1ccccc1 [SEQ ID NO:16 D-peptide, Boc-Aib-Val-Val-Ile-Aib-Thr(OBz)-Val-Aib-Val-Ile-Aib-OMe] (Boc-[Aib][dV][dV][dI][Aib][dT](Bn)[dV][Aib][dV][dI][Aib]-OMe)	28 ± 19 nM	
CC[C@H](C)[C@H](NC(=O)[C@@H](NC(=O)[C@@H](NC(=O)C(C)(C)NC(=O)OC(C)(C)C)C(C)C)C(C)C)C(=O)NC(C)(C)C(=O)N[C@H](C(=O)N[C@H](C(=O)NC(C)(C)C(=O)N[C@H](C(=O)N[C@H](C(=O)NC(C)(C)C(=O)OC)[C@@H](C)CC)C(C)C)C(C)C)[C@@H](C)OCc1ccccc1 [SEQ ID NO:16 L-peptide, Boc-Aib-Val-Val-Ile-Aib-Thr(OBz)-Val-Aib-Val-Ile-Aib-OMe] (Boc-[Aib]VVI[Aib]T(Bn)V[Aib]VI[Aib]-OMe)	3100 nM	
CC[C@@H](C)[C@@H](NC(=O)[C@H](NC(=O)[C@H](NC(=O)C(C)(C)NC(=O)CNC(=O)OC(C)(C)C)C(C)C)C(C)C)C(=O)NC(C)(C)C(=O)N[C@@H](C(=O)N[C@@H](C(=O)NC(C)(C)C(=O)N[C@@H](C(=O)N[C@@H](C(=O)NC(C)(C)C(=O)OC)[C@H](C)CC)C(C)C)C(C)C)[C@H](C)OCc1ccccc1 [SEQ ID NO:17 D-peptide, Boc-Gly-Aib-Val-Val-Ile-Aib-Thr(OBz)-Val-Aib-Val-Ile-Aib-OMe] (Boc-G[Aib][dV][dV][dI][Aib][dT](Bn)[dV][Aib][dV][dI][Aib]-OMe)	12 ± 4 nM	
CC[C@H](C)[C@H](NC(=O)[C@@H](NC(=O)[C@@H](NC(=O)C(C)(C)NC(=O)CNC(=O)OC(C)(C)C)C(C)C)C(C)C)C(=O)NC(C)(C)C(=O)N[C@H](C(=O)N[C@H](C(=O)NC(C)(C)C(=O)N[C@H](C(=O)N[C@H](C(=O)NC(C)(C)C(=O)OC)[C@@H](C)CC)C(C)C)C(C)C)[C@@H](C)OCc1ccccc1 [SEQ ID NO:17 L-peptide, Boc-Gly-Aib-Val-Val-Ile-Aib-Thr(OBz)-Val-Aib-Val-Ile-Aib-OMe] (Boc-G[Aib]VVI[Aib]T(Bn)V[Aib]VI[Aib]-OMe)	360 nM	~100 fold
CC[C@H](C)[C@H](NC(=O)[C@@H](NC(=O)[C@@H](NC(=O)C(C)(C)NC(=O)CNC(=O)[C@@H](NC(=O)OC(C)(C)C)C(C)C)C(C)C)C(C)C)C(=O)NC(C)(C)C(=O)N[C@H](C(=O)N[C@H](C(=O)NC(C)(C)C(=O)N[C@H](C(=O)N[C@H](C(=O)NC(C)(C)C(=O)OC)[C@@H](C)CC)C(C)C)C(C)C)[C@@H](C)OCc1ccccc1 [SEQ ID NO:18 L-peptide, Boc-Val-Gly-Aib-Val-Val-Ile-Aib-Thr(OBz)-Val-Aib-Val-Ile-Aib-OMe] (Boc-VG[Aib]VVI[Aib]T(Bn)V[Aib]VI[Aib]-OMe)	780 nM	~40 fold
CC[C@@H](C)[C@@H](NC(=O)[C@H](NC(=O)[C@H](NC(=O)C(C)(C)NC(=O)CNC(=O)[C@H](NC(=O)C(C)(C)NC(=O)OC(C)(C)C)C(C)C)C(C)C)C(C)C)C(=O)NC(C)(C)C(=O)N[C@@H](C(=O)N[C@@H](C(=O)NC(C)(C)C(=O)N[C@@H](C(=O)N[C@@H](C(=O)NC(C)(C)C(=O)OC)[C@H](C)CC)C(C)C)C(C)C)[C@H](C)OCc1ccccc1 [SEQ ID NO:19 D-peptide, Boc-Aib-Val-Gly-Aib-Val-Val-Ile-Aib-Thr(OBz)-Val-Aib-Val-Ile-Aib-OMe] (Boc-[Aib][dV]G[Aib][dV][dV][dI][Aib][dT](Bn)[dV][Aib][dV][dI][Aib]-OMe)	14 ± 10 nM	
CC[C@H](C)[C@H](NC(=O)[C@@H](NC(=O)[C@@H](NC(=O)C(C)(C)NC(=O)CNC(=O)[C@@H](NC(=O)C(C)(C)NC(=O)OC(C)(C)C)C(C)C)C(C)C)C(C)C)C(=O)NC(C)(C)C(=O)N[C@H](C(=O)N[C@H](C(=O)NC(C)(C)C(=O)N[C@H](C(=O)N[C@H](C(=O)NC(C)(C)C(=O)OC)[C@@H](C)CC)C(C)C)C(C)C)[C@@H](C)OCc1ccccc1 [SEQ ID NO:19 L-peptide, Boc-Aib-Val-Gly-Aib-Val-Val-Ile-Aib-Thr(OBz)-Val-Aib-Val-Ile-Aib-OMe] (Boc-[Aib]VG[Aib]VVI[Aib]T(Bn)V[Aib]VI[Aib]-OMe)	910 ± 170 nM	
CC[C@@H](C)[C@@H](NC(=O)[C@H](NC(=O)[C@H](NC(=O)C(C)(C)NC(=O)CNC(=O)[C@H](NC(=O)C(C)(C)NC(=O)[C@@H](CC(C)C)NC(=O)OC(C)(C)C)C(C)C)C(C)C)C(C)C)C(=O)NC(C)(C)C(=O)N[C@@H](C(=O)N[C@@H](C(=O)NC(C)(C)C(=O)N[C@@H](C(=O)N[C@@H](C(=O)NC(C)(C)C(=O)OC)[C@H](C)CC)C(C)C)C(C)C)[C@H](C)OCc1ccccc1 [SEQ ID NO:20 D-peptide, Boc-Leu-Aib-Val-Gly-Aib-Val-Val-Ile-Aib-Thr(OBz)-Val-Aib-Val-Ile-Aib-OMe] (Boc-[dL][Aib][dV]G[Aib][dV][dV][dI][Aib][dT](Bn)[dV][Aib][dV][dI][Aib]-OMe)	16 ± 7 nM	
CC[C@H](C)[C@H](NC(=O)[C@@H](NC(=O)[C@@H](NC(=O)C(C)(C)NC(=O)CNC(=O)[C@@H](NC(=O)C(C)(C)NC(=O)[C@H](CC(C)C)NC(=O)OC(C)(C)C)C(C)C)C(C)C)C(C)C)C(=O)NC(C)(C)C(=O)N[C@H](C(=O)N[C@H](C(=O)NC(C)(C)C(=O)N[C@H](C(=O)N[C@H](C(=O)NC(C)(C)C(=O)OC)[C@@H](C)CC)C(C)C)C(C)C)[C@@H](C)OCc1ccccc1 [SEQ ID NO:20 L-peptide, Boc-Leu-Aib-Val-Gly-Aib-Val-Val-Ile-Aib-Thr(OBz)-Val-Aib-Val-Ile-Aib-OMe] (Boc-L[Aib]VG[Aib]VVI[Aib]T(Bn)V[Aib]VI[Aib]-OMe)	4700 nM	
